ChEMBL document CHEMBL1201862, “PubChem BioAssay data set” (2004)
The source made the active and inactive calls. Rule as the data show it, for most assays here: actives have a measured EC50 and inactives only a lower limit.

Tests used:
[1] = target: T1, Corticotropin-releasing factor receptor 2/Corticotropin-releasing factor-binding protein (Homo sapiens, UniProt P24387+Q13324); test: Dose Response confirmation of uHTS hits for small molecule antagonists of the CRF-binding protein and CRF-R2 receptor complex.; format: functional; settings: read-out: IC50_Mean
T1 sequence (Q13324 whole entry): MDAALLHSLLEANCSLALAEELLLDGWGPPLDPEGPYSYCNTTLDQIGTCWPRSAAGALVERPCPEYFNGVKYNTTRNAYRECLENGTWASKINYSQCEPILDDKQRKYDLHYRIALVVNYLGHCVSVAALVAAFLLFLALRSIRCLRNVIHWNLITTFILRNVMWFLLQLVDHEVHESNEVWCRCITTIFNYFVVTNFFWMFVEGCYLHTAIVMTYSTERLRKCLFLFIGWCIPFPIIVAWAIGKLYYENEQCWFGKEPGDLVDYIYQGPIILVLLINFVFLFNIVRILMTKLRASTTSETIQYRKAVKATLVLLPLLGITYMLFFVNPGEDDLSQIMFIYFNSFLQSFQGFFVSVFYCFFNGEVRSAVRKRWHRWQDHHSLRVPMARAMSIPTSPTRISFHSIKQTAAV
T1 sequence (P24387 whole entry): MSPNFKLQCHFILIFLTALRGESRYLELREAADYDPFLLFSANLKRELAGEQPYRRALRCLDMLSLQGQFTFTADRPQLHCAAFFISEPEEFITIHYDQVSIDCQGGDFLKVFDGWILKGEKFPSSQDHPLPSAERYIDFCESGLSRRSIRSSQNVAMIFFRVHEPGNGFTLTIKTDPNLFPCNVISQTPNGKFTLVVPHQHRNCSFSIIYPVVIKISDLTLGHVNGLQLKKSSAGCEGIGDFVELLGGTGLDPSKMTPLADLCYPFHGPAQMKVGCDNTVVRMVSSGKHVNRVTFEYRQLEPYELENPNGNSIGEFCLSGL

[2] = target: T1, Corticotropin-releasing factor receptor 2/Corticotropin-releasing factor-binding protein; test: activators of CRF receptor 2 with binding protein – uHTS hits, confirmation (AID 602473); format: functional; settings: read-out: EC50_Mean
[3] = Luminescence Cell-Based Dose Response HTS to Identify Inhibitors of 5'UTR Stem-Loop Driven Prion Protein mRNA Translation in H4 Neuroglioblastoma Cells. [Related pubchem assays: 1827 (Project Summary), 1813 (Primary HTS)]; format: functional
[4] = inhibitors of firefly luciferase expression or activity, dose response, H4 neuroglioma cells, luminescence (AID 1990); format: functional, cell-based
[5] = HEp-2 cell cytotoxicity, dose response, cytotoxicity control for RSV inhibitor project, HTS (AID 2410); format: functional; settings: human respiratory syncytial virus
[6] = test system: INS1; test: beta cell apoptosis inhibitors, cytokine rescue, dose response, luminescence, retest (AID 449756); format: functional, cell-based; settings: Rattus norvegicus;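 also: cell death triggered by IL-1 beta plus TNF-alpha plus IFN-gamma mixture; protective hits raise ATP signal compared with cytokine alone wells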
[7] = inhibitors of SNCA 5'UTR-driven reporter translation, confirmation, H4 neuroglioma cells, luminescence (AID 1988); format: functional, cell-based
[8] = target: T2, Heat shock factor protein 1 (Mus musculus, UniProt P38532); test: inhibition of MG132-induced HSE-luciferase signal, confirmation, cell-based, NIH3T3, luminescence, dose retest (AID 2382); format: functional;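 also: NIH3T3 fibroblasts with HSF1-driven luciferase reporter stressed by proteasome inhibitor MG132; luminescence from HSF1-driven luciferase expression after 8 hours of MG132 stress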
T2 sequence (P38532 whole entry): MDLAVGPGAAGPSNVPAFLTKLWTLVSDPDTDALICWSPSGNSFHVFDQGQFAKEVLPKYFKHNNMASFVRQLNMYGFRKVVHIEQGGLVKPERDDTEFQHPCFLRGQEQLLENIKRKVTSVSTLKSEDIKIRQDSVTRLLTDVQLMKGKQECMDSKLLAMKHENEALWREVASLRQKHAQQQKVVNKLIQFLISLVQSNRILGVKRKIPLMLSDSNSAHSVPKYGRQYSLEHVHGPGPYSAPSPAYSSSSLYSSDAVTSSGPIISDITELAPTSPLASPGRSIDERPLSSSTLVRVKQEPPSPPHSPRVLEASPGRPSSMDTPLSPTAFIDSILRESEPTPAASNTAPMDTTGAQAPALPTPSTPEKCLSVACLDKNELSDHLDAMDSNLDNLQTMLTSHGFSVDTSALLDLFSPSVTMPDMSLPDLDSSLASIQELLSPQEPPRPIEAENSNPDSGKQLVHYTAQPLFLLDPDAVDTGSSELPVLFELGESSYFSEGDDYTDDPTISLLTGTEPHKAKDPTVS

[9] = test system: Streptococcus; test: Group A Streptococcus viability loss, dose response, counter-screen for streptokinase expression inhibitor project, luminescence, BacTiterGlo (AID 1915); format: functional, organism-based;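 also: potency for reduction of bacterial viability or growth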
[10] = test system: Streptococcus sp. 'group A'; test: growth inhibition of control SK(-) GAS strain, dose response, counter-screen for streptokinase expression inhibitor project, luminescence, kanamycin, BacTiterGlo, confirmation (AID 1900); format: functional, organism-based
[11] = target: T3, Streptokinase A (Streptococcus pyogenes serotype M1, UniProt P10520); test: S. pyogenes streptokinase expression inhibitors, potency, dose response, plasminogen activation absorbance, OD405 (AID 1914); format: functional, Streptococcus pyogenes M1 GAS;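 also: secreted streptokinase activity via plasminogen activation per viability signal from cell pellet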
T3 sequence (P10520 whole entry): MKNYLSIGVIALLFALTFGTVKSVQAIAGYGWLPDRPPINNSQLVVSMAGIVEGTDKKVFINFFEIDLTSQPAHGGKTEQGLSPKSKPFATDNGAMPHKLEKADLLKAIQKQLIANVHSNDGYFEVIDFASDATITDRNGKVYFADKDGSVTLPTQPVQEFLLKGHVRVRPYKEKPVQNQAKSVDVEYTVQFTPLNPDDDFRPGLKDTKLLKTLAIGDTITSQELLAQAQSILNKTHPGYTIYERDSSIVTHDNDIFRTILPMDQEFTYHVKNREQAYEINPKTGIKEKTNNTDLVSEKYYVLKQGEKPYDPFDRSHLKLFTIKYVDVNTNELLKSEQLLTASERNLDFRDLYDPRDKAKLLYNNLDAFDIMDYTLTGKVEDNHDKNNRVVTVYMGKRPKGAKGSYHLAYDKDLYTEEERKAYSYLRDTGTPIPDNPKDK

[12] = inhibitors of intracellular T. cruzi replication, confirmation, NIH3T3 host cells, beta-gal luminescence (AID 2044); format: functional, cell-based;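 also: intracellular parasites grown in NIH/3T3 mouse fibroblasts as host cells; luminescent beta-galactosidase reporter signal from transgenic T. cruzi replicating inside host cells; inhibitors lower the luminescence signal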
[13] = cytotoxicity toward NIH3T3 fibroblasts, dose response, counter-screen, cell-based, ATP luminescence, mouse fibroblasts (AID 2010); format: functional;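 also: cells exposed to compound for about 90 hours before reading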
[14] = Luminescence Cell-Based Dose Retest to Confirm Inhibitors of Cancer Stem Cells. [Related pubchem assays (depositor defined):AID2717, AID2721]; format: functional; settings: Homo sapiens

## S=C(NCc1ccccc1)Nc1ccc(Cl)cc1
[1]
  IC50: > 47.1 µM (inactive)
[2]
  EC50: > 53 µM (inactive)

## COc1cc(OC)cc(C(=O)NCC(=O)OCc2cc(=O)oc3cc(OC)ccc23)c1
[1]
  IC50: > 47.1 µM (inactive)
[2]
  EC50: > 53 µM (inactive)

## CCOC(=O)C1CCN(C(=O)CCc2c(C)nc3cc(-c4ccccc4)nn3c2C)CC1
[3]
  EC50: 27.1 µM (active)
[4]
  EC50: 18.2 µM (active)

## CCc1ccccc1N1C(=O)C2CC(C)=C(C)CC2C1=O (centres undefined)
[1]
  IC50: > 47.1 µM (inactive)
[2]
  EC50: > 53 µM (inactive)

## Cc1nc(N)sc1-c1csc(Nc2ccc(Cl)cn2)n1
[5]
  CC50: 7.95 µM (active)

## Cc1ccc(C)c(C(=O)OCC(=O)Nc2cccc(S(=O)(=O)NC3=NCCCCC3)c2)c1
[5]
  CC50: 20.6 µM (active)

## O=C(c1ccco1)N1N=C(c2ccc(Br)cc2)CC1c1ccco1 (centres undefined)
[6]
  AC50: 19.8 µM (active)

## COc1ccc(-c2noc(CCCC(=O)NC3CCCC3)n2)cc1
[3]
  EC50: 14.1 µM (active)
[7]
  EC50: 13.3 µM (active)
[4]
  EC50: 11 µM (active)

## CN(CCO)S(=O)(=O)c1ccc2c(c1)C(=NNC(N)=O)c1cc(S(=O)(=O)N(C)CCO)ccc1-2
[1]
  IC50: > 47.1 µM (inactive)
[2]
  EC50: > 53 µM (inactive)

## N#CCc1c(C#N)c(N)nc(N2CCCC2)c1C#N
[5]
  CC50: 19.6 µM (active)

## COc1ccc(C2C(C#N)=C(N)Oc3cc4c(cc32)OCO4)cc1 (centres undefined)
[3]
  EC50: 74 µM (active)
[7]
  EC50: 10.9 µM (active)
[4]
  EC50: > 120 µM (not active)

## COc1ccc(CCNC(=O)c2ccc3c(c2)N(Cc2ccc(F)cc2)CCS3)cc1OC
[5]
  CC50: 25.7 µM (active)

## O=C1N[C@@H](Cc2ccccc2)C(=O)N2[C@@H]3N(S(=O)(=O)c4ccc(F)cc4)c4ccccc4[C@]3(Br)C[C@@H]12
[5]
  CC50: > 50 µM (active)

## CC1(OC(=O)CCc2ccccc2)C(=O)C=C2C=C(c3ccc(C#N)cc3)N(CCc3ccccn3)C=C2C1=O (centres undefined)
[8]
  EC50: > 195 µM (not active)

## Cc1ccc(C)c2sc(N3CCN(C(=O)c4ccc([N+](=O)[O-])o4)CC3)nc12
[5]
  CC50: 16.9 µM (active)
[9]
  EC50: 9.98 µM (active)
[10]
  EC50: 2.67 µM (active)
[11]
  EC50: 2.59 µM (active)

## COc1cccc(C2[C@H](C)C3(CCN2C)OCCO3)c1 (some centres undefined)
[3]
  EC50: > 120 µM (not active)
[7]
  EC50: > 120 µM (not active)
[4]
  EC50: > 120 µM (not active)

## CCNC(=O)Nc1cc(S(=O)(=O)Nc2ccc(OC)cc2)ccc1N1CCOCC1
[6]
  AC50: 3.3 µM (active)

## CCOC(=O)c1c(C)[nH]c(C)c1S(=O)(=O)NCCc1cccs1
[8]
  EC50: > 195 µM (not active)

## Cc1cc(C(=O)COC(=O)c2ccco2)c(C)n1Cc1ccco1
[8]
  EC50: < 0.16 µM (active)

## Cc1cc(C)n(CC(C)NC(=O)c2cc(COc3ccc(F)c(F)c3)on2)n1 (centres undefined)
[8]
  EC50: > 195 µM (not active)

## CCOc1ccccc1CNC(=O)c1nn(C)c2c1CS(=O)(=O)c1ccccc1-2
[3]
  EC50: > 120 µM (not active)
[7]
  EC50: > 120 µM (not active)
[4]
  EC50: > 120 µM (not active)

## CCc1ccccc1Nc1nc2ccccc2n1CC
[3]
  EC50: > 120 µM (not active)
[7]
  EC50: 23 µM (active)
[4]
  EC50: > 120 µM (not active)

## CCC(C)(C)c1ccc(Oc2ccc(NC(=O)COC(=O)C3=COCCO3)cc2)cc1
[3]
  EC50: 10.1 µM (active)
[7]
  EC50: 8.92 µM (active)
[4]
  EC50: 6.08 µM (active)

## Cc1nn(Cc2ccc(F)cc2)c(C)c1NC(=O)c1cc(-c2ccc3c(c2)OCO3)on1
[3]
  EC50: > 120 µM (not active)
[7]
  EC50: > 120 µM (not active)
[4]
  EC50: 15.7 µM (active)

## C#CCN(C#N)c1nc(NCC)nc(NC(C)C)n1
[3]
  EC50: > 120 µM (not active)
[7]
  EC50: 16 µM (active)
[4]
  EC50: 28.9 µM (active)

## C/C=C/c1ccc(OCC(=O)Nc2ccc(OC)c(OC)c2)c(OC)c1
[8]
  EC50: > 195 µM (not active)

## Cc1ccc2c(c1)c(-c1ccccc1)nc1nnnn12
[3]
  EC50: > 120 µM (not active)
[7]
  EC50: 120 µM (active)
[4]
  EC50: 17.5 µM (active)

## COc1cccc(CC(=O)N[C@@H](CCSC)c2nc3ccccc3[nH]2)c1
[8]
  EC50: > 195 µM (not active)

## COc1ccccc1CNC(=O)c1ccc2[nH]c3nc4ccccc4c-3nc2c1
[5]
  CC50: > 50 µM (active)

## Cc1nnc(C)c2c(C)n(C(c3ccccc3)c3ccccc3)c(C)c12
[5]
  CC50: 18.3 µM (active)
[12]
  EC50: 1.46 µM (active)
[13]
  EC50: > 60 µM (not active)

## COc1ccc2oc(C(=O)OCC(=O)N(C)CC(=O)Nc3ccc(C)cc3)c(C)c2c1
[8]
  EC50: > 195 µM (not active)

## COc1cccc(OC)c1CC1SC(=O)NC1=O (centres undefined)
[5]
  CC50: 40.2 µM (active)

## CCCCCCSc1cc(-c2nc3ccc(C)cn3c2NCc2ccccc2)ccc1OC
[6]
  AC50: 6.87 µM (active)

## CC1(C)C[C@@H]2C[C@@](C)(CN2C(=O)c2cc(COc3cccc(C(F)(F)F)c3)on2)C1
[6]
  AC50: 11.6 µM (active)
[14]
  AC50: 2.23 µM (active)

## C[C@@H]1CN([C@H](C)CO)C(=O)c2cc(NC(=O)Nc3ccc(C(F)(F)F)cc3)ccc2O[C@H]1CN(C)S(=O)(=O)c1cccs1
[6]
  AC50: 27 µM (active)

## CCCC(=O)Nc1nc(C)c(-c2csc(Nc3ccc(Cl)cc3)n2)s1
[5]
  CC50: 7.41 µM (active)

## COc1ccc(-n2c(C)cc(-c3csc(NC(=O)c4ccc(S(=O)(=O)N(C)C)cc4)n3)c2C)cc1
[8]
  EC50: > 195 µM (not active)

## CCOc1ccc2c3c(c(=O)oc2c1OCC)CCCC3
[5]
  CC50: 44 µM (active)

## CCOC(=O)c1ccc(NC(=O)c2cc3c(C)nn(-c4ccccc4Cl)c3s2)s1
[3]
  EC50: > 120 µM (not active)
[7]
  EC50: > 120 µM (not active)
[4]
  EC50: 15.3 µM (active)

## COc1ccc(CCNC(=O)Cc2cccs2)cc1
[8]
  EC50: > 195 µM (not active)

## Cc1cc(C)c2c(C)n[nH]c2n1
[6]
  AC50: > 260 µM (inactive)

## CCC1(C)Cc2c(sc3nc(SC)nc(N)c23)CO1 (centres undefined)
[5]
  CC50: 31 µM (active)

## COc1cc(NS(=O)(=O)c2csc(C(N)=O)c2)cc(OC)c1
[8]
  EC50: > 195 µM (not active)

## COc1ccc(CNc2nc3c(c(=O)[nH]c(=O)n3C)n2Cc2ccccc2C)cc1
[8]
  EC50: > 195 µM (not active)

## O=C(c1ccccc1)c1nc2ccccc2n(CCCn2c(=O)c(C(=O)c3ccccc3)nc3ccccc32)c1=O
[3]
  EC50: 34.5 µM (active)
[7]
  EC50: > 120 µM (not active)
[4]
  EC50: 33.3 µM (active)

## COc1cc(OC)c2c3c(c(C4CCCCC4)nc2c1)CCC3
[5]
  CC50: 30.1 µM (active)
